# Assay results published in ChEMBL document CHEMBL5316362, “Synthesis of the Purported Structure of Glyphaeaside C and Proposed Revisions to the Structures of the Glyphaeaside Alkaloids” (J Nat Prod, 2023).
# The source made the active and inactive calls. No cut-off for these calls is given here.
# Tests used:
# Alpha-galactosidase = Alpha-galactosidase (Coffea arabica, UniProt Q42656); assay: Inhibition of coffee bean alpha-galactosidase
# Prunus dulcis [1] = assay: Inhibition of almond beta-glucosidase at 1000 uM relative to control
# [2] = Inhibition of Almond beta-glucosidase; parameters: species or system Prunus dulcis
# [3] = Inhibition of Bovine liver beta-glucosidase; assay type: tissue-based, Bos taurus
# Alpha-glucosidase = Alpha-glucosidase (Saccharomyces cerevisiae S288c, UniProt P53341+P38158+P07265); assay: Inhibition of yeast alpha-glucosidase; assay type: protein assay
# [4] = molecular target: T1, Tissue alpha-L-fucosidase (Bos taurus) (UniProt Q2KIM0); assay: Inhibition of bovine kidney alpha-L-fucosidase at 1000 uM; assay type: tissue-based
# T1 sequence (whole entry): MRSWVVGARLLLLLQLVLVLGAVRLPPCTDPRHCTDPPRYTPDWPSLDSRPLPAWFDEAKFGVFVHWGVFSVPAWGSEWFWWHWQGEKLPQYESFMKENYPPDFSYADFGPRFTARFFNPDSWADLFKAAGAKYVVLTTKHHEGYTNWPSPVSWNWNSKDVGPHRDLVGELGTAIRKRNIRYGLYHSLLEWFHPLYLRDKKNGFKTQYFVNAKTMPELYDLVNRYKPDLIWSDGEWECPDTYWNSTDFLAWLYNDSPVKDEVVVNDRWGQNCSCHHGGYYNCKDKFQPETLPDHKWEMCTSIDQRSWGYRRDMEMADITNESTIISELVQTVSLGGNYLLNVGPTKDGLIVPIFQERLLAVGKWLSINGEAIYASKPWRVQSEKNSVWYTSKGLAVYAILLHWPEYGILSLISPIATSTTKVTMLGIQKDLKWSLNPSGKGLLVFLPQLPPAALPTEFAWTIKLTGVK
# [5] = molecular target: Beta-glucuronidase (Escherichia coli (strain K12)) (UniProt P05804); assay: Inhibition of Escherichia coli beta-glucuronidase at 1000 uM
# Penicillium decumbens [6] = assay: Inhibition of Penicillium decumbens alpha-L-rhamnosidase at 1000 uM relative to control
# Aspergillus niger [7] = assay: Inhibition of Aspergillus niger amyloglucosidase at 1000 uM relative to control
# [8] = Inhibition of bovine liver beta-galactosidase; assay type: tissue-based, Bos taurus
# Bos taurus [9] = species on record: Bos taurus; assay: Inhibition of bovine liver beta-glucuronidase at 1000 uM; assay type: tissue-based
# Helix pomatia [10] = assay: Inhibition of snail beta-mannosidase at 1000 uM
# [11] = (§1) Inhibition of almond beta-glucosidase at 100 uM relative to control; parameters: species or system Prunus dulcis
# Sus scrofa [12] = species on record: Sus scrofa; assay: Inhibition of porcine kidney trehalase at 1000 uM relative to control; assay type: tissue-based
# [13] = Inhibition of rat intestinal maltase; assay type: tissue-based, Intestine
# [14] = Inhibition of human lysosomal alpha-galactosidase; assay type: subcellular, Lysosome
# [15] = Inhibition of rice alpha glucosidase; parameters: species or system Oryza sativa
# [16] = molecular target: Lysosomal alpha-glucosidase (Homo sapiens, UniProt P10253); assay: Inhibition of human lysosomal alpha-glucosidase; assay type: subcellular, Lysosome
# [17] = molecular target: T2, Alpha-mannosidase (Canavalia ensiformis) (UniProt C0HJB3); assay: Inhibition of jack bean alpha-mannosidase at 1000 uM
# T2 sequence (whole entry): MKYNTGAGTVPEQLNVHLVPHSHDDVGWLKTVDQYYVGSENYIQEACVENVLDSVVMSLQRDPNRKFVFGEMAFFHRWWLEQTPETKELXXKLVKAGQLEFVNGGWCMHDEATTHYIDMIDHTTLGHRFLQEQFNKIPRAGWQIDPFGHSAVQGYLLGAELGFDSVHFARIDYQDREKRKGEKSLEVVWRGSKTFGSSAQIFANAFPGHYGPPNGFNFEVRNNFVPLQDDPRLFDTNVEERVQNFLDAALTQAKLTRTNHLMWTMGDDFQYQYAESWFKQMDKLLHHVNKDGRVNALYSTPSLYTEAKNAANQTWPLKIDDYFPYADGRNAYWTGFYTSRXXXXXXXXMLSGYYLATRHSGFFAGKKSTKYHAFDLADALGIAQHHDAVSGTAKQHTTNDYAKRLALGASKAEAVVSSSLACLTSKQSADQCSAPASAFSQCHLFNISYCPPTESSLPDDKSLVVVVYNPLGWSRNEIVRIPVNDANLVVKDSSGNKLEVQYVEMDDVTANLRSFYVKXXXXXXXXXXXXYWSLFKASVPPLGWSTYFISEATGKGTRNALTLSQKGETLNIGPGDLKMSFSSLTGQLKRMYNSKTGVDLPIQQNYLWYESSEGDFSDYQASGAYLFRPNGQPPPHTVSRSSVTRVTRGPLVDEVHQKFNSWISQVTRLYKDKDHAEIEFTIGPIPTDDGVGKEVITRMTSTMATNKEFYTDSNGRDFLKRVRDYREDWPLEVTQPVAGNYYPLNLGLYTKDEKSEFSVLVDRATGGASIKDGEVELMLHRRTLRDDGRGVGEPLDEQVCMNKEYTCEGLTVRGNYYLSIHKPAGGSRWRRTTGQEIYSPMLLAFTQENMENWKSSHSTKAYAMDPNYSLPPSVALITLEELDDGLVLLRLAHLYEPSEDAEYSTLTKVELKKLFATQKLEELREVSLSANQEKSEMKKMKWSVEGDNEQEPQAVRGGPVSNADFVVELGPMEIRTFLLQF
# Prunus dulcis [18] = assay: Inhibition of Almond beta-glucosidase at 412 uM relative to control
# [19] = molecular target: Alpha-galactosidase (Coffea arabica) (UniProt Q42656); assay: Inhibition of coffee bean alpha-galactosidase at 1000 uM relative to control
# [20] = Inhibition of Almond beta-glucosidase using p-nitrophenyl glycoside as substrate preincubated for 5 mins followed by substrate addition and measured after 15 mins by spectrometry analysis; parameters: species or system Prunus dulcis
# [21] = molecular target: T1, Tissue alpha-L-fucosidase (Bos taurus); assay: Inhibition of bovine kidney alpha-L-fucosidase at 100 uM
# Helix pomatia [22] = assay: Inhibition of snail beta-mannosidase at 100 uM
# Penicillium decumbens [23] = assay: Inhibition of Penicillium decumbens alpha-L-rhamnosidase at 100 uM relative to control
# Prunus dulcis [24] = assay: as §1
# [25] = molecular target: Beta-glucuronidase (Escherichia coli (strain K12)) (UniProt P05804); assay: Inhibition of Escherichia coli beta-glucuronidase at 100 uM
# Homo sapiens = species on record: Homo sapiens; assay: Inhibition of human lysosomal alpha-galactosidase at 100 uM realtive to control; assay type: subcellular; details: Lysosome
# Sus scrofa [26] = species on record: Sus scrofa; assay: Inhibition of porcine kidney trehalase at 100 uM relative to control; assay type: tissue-based
# Aspergillus niger [27] = assay: Inhibition of Aspergillus niger amyloglucosidase at 100 uM relative to control
# [28] = molecular target: T2, Alpha-mannosidase (Canavalia ensiformis); assay: Inhibition of jack bean alpha-mannosidase at 100 uM
# Bos taurus [29] = species on record: Bos taurus; assay: Inhibition of bovine liver beta-glucuronidase at 100 uM
# Sequence of Alpha-galactosidase (Q42656 whole entry): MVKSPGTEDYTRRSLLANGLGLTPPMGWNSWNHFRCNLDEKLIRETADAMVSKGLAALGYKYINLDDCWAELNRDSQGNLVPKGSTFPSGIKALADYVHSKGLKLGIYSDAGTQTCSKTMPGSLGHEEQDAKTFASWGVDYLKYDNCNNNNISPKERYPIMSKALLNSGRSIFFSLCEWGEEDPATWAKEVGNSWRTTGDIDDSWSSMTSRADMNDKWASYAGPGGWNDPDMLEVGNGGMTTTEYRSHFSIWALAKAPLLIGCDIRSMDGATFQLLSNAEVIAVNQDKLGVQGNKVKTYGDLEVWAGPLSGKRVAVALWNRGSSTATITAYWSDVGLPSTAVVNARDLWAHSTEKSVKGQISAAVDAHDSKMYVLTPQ
# Sequence of Beta-glucuronidase (Escherichia coli (strain K12)) (P05804 whole entry, looked up): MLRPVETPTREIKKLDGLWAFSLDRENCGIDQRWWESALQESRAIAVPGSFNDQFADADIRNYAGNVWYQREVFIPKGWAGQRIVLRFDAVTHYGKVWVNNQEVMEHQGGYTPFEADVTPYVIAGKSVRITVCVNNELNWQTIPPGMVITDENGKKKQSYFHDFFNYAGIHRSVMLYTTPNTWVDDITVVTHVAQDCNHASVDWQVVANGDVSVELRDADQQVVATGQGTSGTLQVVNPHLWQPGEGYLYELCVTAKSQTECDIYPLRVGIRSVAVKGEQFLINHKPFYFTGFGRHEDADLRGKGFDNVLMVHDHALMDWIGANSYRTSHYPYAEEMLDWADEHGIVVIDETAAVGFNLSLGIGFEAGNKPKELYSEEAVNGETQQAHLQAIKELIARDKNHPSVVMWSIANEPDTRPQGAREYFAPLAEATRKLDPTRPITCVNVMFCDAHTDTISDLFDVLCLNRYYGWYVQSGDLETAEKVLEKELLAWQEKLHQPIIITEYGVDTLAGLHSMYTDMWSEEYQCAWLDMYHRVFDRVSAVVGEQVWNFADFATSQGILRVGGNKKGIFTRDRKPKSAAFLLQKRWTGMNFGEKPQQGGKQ
# Sequence of Alpha-galactosidase (Coffea arabica) (Q42656 16-378 limits assumed): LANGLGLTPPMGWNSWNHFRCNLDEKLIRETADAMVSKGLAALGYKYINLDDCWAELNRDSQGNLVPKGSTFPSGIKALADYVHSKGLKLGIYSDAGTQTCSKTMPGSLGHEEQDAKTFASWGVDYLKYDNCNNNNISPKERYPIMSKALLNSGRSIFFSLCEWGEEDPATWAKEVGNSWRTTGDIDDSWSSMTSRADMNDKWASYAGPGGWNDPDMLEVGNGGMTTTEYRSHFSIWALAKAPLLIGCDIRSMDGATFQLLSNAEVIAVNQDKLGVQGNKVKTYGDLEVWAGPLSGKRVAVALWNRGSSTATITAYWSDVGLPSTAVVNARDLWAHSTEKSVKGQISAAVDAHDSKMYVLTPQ
structure (smiles),measurement,setting,value
OCCCCCC/C=C\C[C@H](O)[C@@H](O)[C@H]1N[C@H](CO)[C@H](O)[C@@H]1O[C@@H]1O[C@H](CO)[C@@H](O)[C@H](O)[C@H]1O,IC50,Alpha-galactosidase,8 µM
same,inhibition,Prunus dulcis [1],< 50%
CCCCCCCC[C@H]1N[C@H](CO)[C@@H](O)[C@H](O)[C@H]1O,IC50,[2],175 µM
same,IC50,[3],195 µM
same,IC50,Alpha-galactosidase,3.3 µM
same,IC50,Alpha-glucosidase,71 µM
same,inhibition,[4],inactive
same,inhibition,[5],inactive
same,inhibition,Penicillium decumbens [6],43.8%
same,inhibition,Aspergillus niger [7],38.8%
same,IC50,[8],52 µM
same,inhibition,Bos taurus [9],inactive
same,inhibition,Helix pomatia [10],inactive
same,IC50,[11],175 µM
same,inhibition,Sus scrofa [12],43.2%
same,IC50,[13],1.7 µM
same,IC50,[14],13 µM
same,IC50,[15],0.7 µM
same,IC50,[16],0.6 µM
same,inhibition,[17],inactive
OCCCCCCCCCCCC[C@H](O)[C@@H]1N[C@@H](CO)[C@H](O)[C@H]1O,inhibition,Prunus dulcis [18],15.2%
OC[C@H]1N[C@H](C(O)CCCCCCC(O)C(O)c2ccccc2)[C@H](O)[C@@H](O)[C@H]1O (some centres undefined),inhibition,[19],76%
OC[C@H]1N[C@H](CO)[C@@H](O)[C@H]1O,IC50,[2],40 µM
OC[C@H]1N[C@H]([C@H](O)C(O)CCCCCC(O)C(O)C(O)c2ccccc2)[C@@H](O[C@@H]2O[C@H](CO)[C@@H](O)[C@H](O)[C@H]2O)[C@H]1O (some centres undefined),IC50,[2],15 µM
OC[C@H]1N[C@H](CCCCCCC(O)C(O)Cc2ccc(O)cc2)[C@H](O)[C@@H](O)[C@@H]1O (some centres undefined),IC50,[20],0.15 µM
OC[C@H]1N[C@H]([C@H](O)C(O)CCCCCCC(O)C(O)c2ccccc2)[C@@H](O[C@@H]2O[C@H](CO)[C@@H](O)[C@H](O)[C@H]2O)[C@H]1O (some centres undefined),IC50,[2],68 µM
O=C(O)C(F)(F)F.OC[C@H]1N[C@H](CCCCCCCCCc2ccc(O)cc2)[C@H](O)[C@@H](O)[C@@H]1O,IC50,[3],25 µM
same,IC50,Alpha-galactosidase,22 µM
same,IC50,Alpha-glucosidase,95 µM
same,inhibition,[21],inactive
same,inhibition,Helix pomatia [22],inactive
same,inhibition,Penicillium decumbens [23],10.9%
same,IC50,[8],4.1 µM
same,inhibition,Prunus dulcis [24],33.1%
same,inhibition,[25],inactive
same,IC50,[13],0.95 µM
same,inhibition,Homo sapiens,42.9%
same,inhibition,Sus scrofa [26],13.2%
same,IC50,[15],0.4 µM
same,inhibition,Aspergillus niger [27],16.4%
same,IC50,[16],0.25 µM
same,inhibition,[28],inactive
same,inhibition,Bos taurus [29],inactive
OC[C@H]1N[C@H]([C@H](O)CCCCCC[C@H](O)[C@@H](O)Cc2ccc(O)cc2)[C@@H](O)[C@@H]1O,IC50,[2],0.92 µM
